Data from patent publication US20020147353A1, “Novel flavonoids” (Vereniging christelijk wetenschappelijk anderwijs, priority 1999, published 2002).

Key:
[1] = TEAC model (Trolox equivalent antioxidant capacity); settings: concentration of Trolox equivalent to 1 mM test compound; mean ± S.D., n = 3-5
Experimental: A solution of 2,2′-azino-bis(3-ethylbenzthiazoline-6-sulfonic acid) (1.23 mg/mL) and azobisamidinepropane (3.96 mg/mL) in 50 mM phosphate buffer (pH=7.4) was heated at 70° C. for 20 min. The amount of ABTS radicals was measured by determination of the absorbance at 734 nm.
Stock solutions of the flavonoids were freshly prepared in nitrogen-purged DMSO and nanopure water (1:1) just before use. A calibration curve of Trolox ((+/−)-6-hydroxy-2,5,7,8-tetramethyl-chroman-2-carboxylic acid) was made in a concentration range from 0 to 20 μM. A mixture of 50 μL test compound and 950 μL ABTS^−+ solution was incubated at 37° C. for 5 min. Subsequently the absorbance at 734 nm was determined on a UV/VIS Spectrophotometer.
The antioxidant-induced decrease in absorbance is directly related to the antioxidant capacity of the compound (solution) being tested.
The Trolox equivalent antioxidant capacity (TEAC) is defined as the concentration (mM) of Trolox having an antioxidant capacity equivalent to 1 mM of the test compound.

[2] = system: iron/ascorbate induced lipid peroxidation; test: Lipid peroxidation (LPO) model, heat-treated hepatic microsomes, TBA reactive substances; type: biochemical; settings: rat hepatic microsomes, reaction started with 10 uM FeSO4; mean ± s.e.m., n = 3-5
Experimental: Experiment 1: Lipid Peroxidation Model
Preparation of hepatic microsomes.
Male Wistar rats (200-220 g) obtained from Harlan Nederland B.V. (Horst, The Netherlands) were sacrificed by decapitation. Livers were removed and homogenized in ice-cold phosphate buffer (50 mM+0.1 mM EDTA, pH=7.4, 1:2 w/v). The homogenate was centrifuged at 10 000× g (20 min at 4° C.). Subsequently, the supernatant was centrifuged at 100 000× g for 60 min (4° C.). The pellet was resuspended in phosphate buffer and centrifuged again at 100 000× g (60 min, 4° C.). Finally the microsomal pellet was resuspended in phosphate buffer (2 g liver/ml) and 1 mL aliquots were stored at −80° C.
Microsomes were thawed and resuspended in ice-cold Tris-HCl buffer (50 mM, pH=7.4 at 37° C.) and washed by centrifugation. The pellet was resuspended in 2 mL 50 mM Tris-HCl buffer and heated to 100° C. for at least 2 min to remove all enzymatic factors just before resuspending and diluting it in ice-cold Tris buffer to 1.5 mg/mL.
Stock solutions of the flavonoids were freshly prepared in nitrogen-purged DMSO and nanopure water (1:1) just before use. The reaction was started by adding 10 uM freshly prepared FeSO4 in nitrogen-purged nanopure water. LPO was assayed by measuring thiobarbituric acid (TBA) reactive substances. At t=0, 5, 10, 15, 30, 45 and 60 min an 0.3 mL aliquot of the incubation was mixed with 2 mL of an ice-cold TBA-trichloroacetic acid-HCl-butylhydroxytoluene (BHT) solution to stop the reaction. After heating and centrifugation the absorbance at 535 vs 600 nm was determined. The TBA-trichloroacetic acid-HCl-butylhydroxytoluene solution was prepared by dissolving 41.6 mg TBA/10 ml trichloroacetic acid (16.8% w/v in 0.125 N HCl). To 10 ml TBA-trichloroacetic acid-HCl 1 ml BHT (1.5 mg/ml ethanol) was added.
The IC50 was determined by measuring the % LPO inhibition at several concentrations and interpolating the 50% inhibition point.

[3] = system: isolated mouse left atrium; test: Isolated mouse left atrium model: protection against doxorubicin-induced negative inotropy; design: key: NP: No protection; settings: 250 μM flavonoid with 35 μM doxorubicin, electrically paced mouse left atrium
Experimental: Experiment 3: Isolated Mouse Left Atrium Model
In order to determine the cardioprotective properties of the compounds in vitro, the protection against doxorubicin-induced negative inotropy was studied, using the isolated mouse left atrium model.
The example compounds were tested for their protective effect on the negative inotropic action of doxorubicin on the isolated mouse left atrium. The testing model has been described earlier (de Jong et al.Ress Comm Chem Pathol Pharmacol 68, 275-289 (1990). In short, left atria were isolated from male Balb/c mice (18-22 g) and stimulated with square wave pulses of 3 ms duration at a frequency of 4 Hz. Incubation with […] doxorubicin causes a decrease in inotropy of 50% (after 1 h). Atria were incubated with 35 μM doxorubicin and 250 μM flavonoid. Inotropy was measured and expressed as % basal contractile force relative to t=0.

OVCAR-3 cells [4] = test: Antitumor activity of flavonoids, SRB growth inhibition assay; type: cell-based; settings: 72 h
Experimental: Experiment 6: Antitumor Activity of Flavonoids
Next to the use of flavonoids as medicaments in free radical mediated diseases, the presence of anti-tumor activity has been reported. Quercetin is the best known example (Molnar et al. Neoplasma, 28: 11-17 (1981)). Because of the possible use of these compounds in chemotherapy, it was checked whether the compounds affected cell growth.
On day 0 cultured OVCAR-3 cells were plated at a density of 5000 cells/well. After 24 h (day 1) the example compounds were added and after incubation of 72 h at 37° C. (day 4), growth inhibitory effects were evaluated with the standard SRB (sulforhodamine B) assay (Skehan et al. J. Natl. Cancer Inst., 82: 1107-1112 (1990)).

OVCAR-3 cells [5] = test: Interference with antitumor activity of doxorubicin, MTT assay; type: cell-based; settings: Homo sapiens, OVCAR-3, 96 h, read-out: Dox IC50
Experimental: (§1) Experiment 5: Interference with the Antitumor Activity of Doxorubicin Because of the possible use of these compounds as adjuvants in the chemotherapy, it was checked whether the compounds influenced the negative effect of doxorubicin on cell growth. […] This observation further underlined the use of these compounds as adjuvant therapy in the protection of the side effects of cytostatics. On day 0 cultured OVCAR-3, MCF-7 and A2780 cells were plated at a density of 5000 cells/well for OCAR-3 and MCF-7 and 3000 cells/well for A2780 cells. […] After incubation of 96 h at 37° C. (day 5), growth inhibitory effects were evaluated using the standard MTT assay.

MCF-7 cells = test: as above; type: cell-based; settings: Homo sapiens, MCF7, MCF-7, 96 h, read-out: Dox IC50
Experimental: as §1

A2780 cells = test: as above; type: cell-based; settings: Homo sapiens, A2780, 96 h, read-out: Dox IC50
Experimental: as §1

Compound	IC50 [2]	TEAC [1]	Atrium protection (250 μM) [3]	further results
O=c1cc(-c2ccc(O)c(O)c2)oc2cc(OCCO)ccc12 [Compound 8c, 3′,4′-dihydroxy-7-hydroxyethoxyflavone]	16.4 ± 1.7 µM	4.3 ± 0.7 mM		
C[N+](C)(C)CCCOc1ccc2c(=O)cc(-c3ccc(O)c(O)c3)oc2c1 [Compound 8d, 3′4′-dihydroxy-7-(3-trimethylaminopropoxy)flavone]	37.3 ± 2.4 µM	1.9 ± 0.3 mM		
CN(C)CCCOc1ccc2c(=O)cc(-c3ccc(O)c(O)c3)oc2c1 [Compound 8e, 3′,4′-dihydroxy-7-(3-dimethylaminopropoxy)flavone]	8.1 ± 1.1 µM	2.9 ± 0.4 mM		
CN(C)CCCOc1c(-c2ccc(O)c(O)c2)oc2ccccc2c1=O [Compound 9e, 3′,4′-dihydroxy-3-(3-dimethylaminopropoxy)flavone]	1 ± 0.1 µM	3.4 ± 0.4 mM	NP	
C[C@@H]1O[C@@H](OC[C@H]2O[C@@H](Oc3c(-c4ccc(O)c(O)c4)oc4ccccc4c3=O)[C@H](O)[C@@H](O)[C@@H]2O)[C@H](O)[C@H](O)[C@H]1O [Compound 9j, 3′,4′-dihydroxy-3-rutinoseflavone]	15.7 ± 4.8 µM	4.3 ± 0.3 mM	NP	
COc1c(-c2ccc(O)c(O)c2)oc2cc(O)ccc2c1=O [Compound 10b, 3-methoxy-7,3′,4′-trihydroxyflavone]	1.6 ± 0.7 µM	5.9 ± 0.7 mM	NP	IC50 (OVCAR-3 cells [4]; Homo sapiens): 15.8 ± 1.3 µM
O=c1c(OCCO)c(-c2ccc(O)c(O)c2)oc2cc(O)ccc12 [Compound 10c, 3-hydroxyethoxy-7,3′,4′-trihydroxyflavone]	21.7 ± 6.1 µM	3.4 ± 0.2 mM	13%	
COc1cccc2c1C(=O)c1c(O)c3c(c(O)c1C2=O)C[C@@](O)(C(=O)CO)C[C@@H]3O[C@H]1C[C@H](N)[C@H](O)[C@H](C)O1 [Dox, doxorubicin, reference compound]				IC50 (OVCAR-3 cells [5]): 0.0065 µM; IC50 (MCF-7 cells): 0.004 µM; IC50 (A2780 cells): 0.0038 µM
O=c1cc(-c2ccc(O)c(O)c2)oc2cc(O)cc(O)c12 [Lutcolin, reference compound]	17 µM			
C[C@@H]1O[C@@H](OC[C@H]2O[C@@H](Oc3c(-c4ccc(O)c(O)c4)oc4cc(OCCO)cc(O)c4c3=O)[C@H](O)[C@@H](O)[C@@H]2O)[C@H](O)[C@H](O)[C@H]1O [monoHER, 7-monohydroxyethylrutoside, reference compound]	12.7 ± 3.7 µM	3.0 ± 0.2 mM	52%	
Fisetin [reference compound]	16 µM			

Continued, in another order:

IC50 [2]	Compound	TEAC [1]	Atrium protection (250 μM) [3]	further results
11 ± 1.3 µM	O=c1cc(-c2ccc(O)c(O)c2)oc2cc(O)ccc12 [Compound 8a, 3′,4′,7-trihydroxyflavone]	4.3 ± 0.2 mM		
2.5 ± 0.8 µM	COc1ccc2c(=O)cc(-c3ccc(O)c(O)c3)oc2c1 [Compound 8b, 3′,4′-dihydroxy-7-methoxyflavone]	3.3 ± 0.2 mM		melting point: > 240 °C
1.8 ± 1 µM	O=c1c(O)c(-c2ccc(O)c(O)c2)oc2ccccc12 [Compound 9a, 3′3,3′,4′-trihydroxyflavone]	4.5 ± 0.5 mM	NP^1	IC50 (OVCAR-3 cells [4]): 21 ± 2.4 µM
1.3 ± 0.7 µM	COc1c(-c2ccc(O)c(O)c2)oc2ccccc2c1=O [Compound 9b, 3′4′-dihydroxy-3-methoxyflavone]	4.4 ± 0.3 mM	NP	IC50 (OVCAR-3 cells [4]): 2.2 ± 0.4 µM
0.6 ± 0.1 µM	O=c1c(OCCO)c(-c2ccc(O)c(O)c2)oc2ccccc12 [Compound 9c, 3′,4′-dihydroxy-3-hydroxyethoxyflavone]	4.4 ± 0.4 mM	NP	IC50 (OVCAR-3 cells [4]; Homo sapiens): 44.2 ± 20.1 µM
6.5 ± 1 µM	O=C(O)COc1c(-c2ccc(O)c(O)c2)oc2ccccc2c1=O [Compound 9d, 3′4′-dihydroxy-3-(2-ethoxycarboxylic acid)flavone]	7.6 ± 0.6 mM	NP	
1.2 ± 0.3 µM	C[N+](C)(C)CCCOc1c(-c2ccc(O)c(O)c2)oc2ccccc2c1=O [Compound 9f, 3′4′-dihydroxy-3-(3-trimethylaminopropoxy)flavone]	4.2 ± 0.2 mM	NP	
1.4 ± 0.3 µM	C[N+](C)(C)CCCCCCOc1c(-c2ccc(O)c(O)c2)oc2ccccc2c1=O [Compound 9g, 3′4′-dihydroxy-3-(6-trimethylaminohexyloxy)flavone]	4.3 ± 0.6 mM	NP	
1 ± 0.3 µM	C[N+](C)(C)CCCCCCCCOc1c(-c2ccc(O)c(O)c2)oc2ccccc2c1=O [Compound 9h, 3′4′-dihydroxy-3-(8-trimethylaminooctyloxy)flavone]	3.3 ± 0.6 mM	NP	
3.8 ± 0.1 µM	C[N+](C)(C)CCCc1c(-c2ccc(O)c(O)c2)oc2cc(O)ccc2c1=O.[Cl-] [Compound 10d, 3-(7,3′,4′-trihydroxyflavon-3-yl)-propyltrimethylammoniumchloride]	5.1 ± 0.3 mM	33%	
6 µM	O=c1c(O)c(-c2ccccc2)oc2cc(O)cc(O)c12 [Galangin, reference compound]			
6 µM	O=c1c(O)c(-c2ccc(O)cc2)oc2cc(O)cc(O)c12 [Kaempferol, reference compound]			
10 µM	O=c1c(O)c(-c2cc(O)c(O)c(O)c2)oc2cc(O)cc(O)c12 [Myricetin, reference compound]			
9 µM	O=c1c(O)c(-c2ccc(O)c(O)c2)oc2cc(O)cc(O)c12 [Quercetin, reference compound]			IC50 (OVCAR-3 cells [4]; Homo sapiens): 126 ± 50.5 µM
10 µM	C[C@@H]1O[C@@H](OC[C@H]2O[C@@H](Oc3c(-c4ccc(O)c(O)c4)oc4cc(O)cc(O)c4c3=O)[C@H](O)[C@@H](O)[C@@H]2O)[C@H](O)[C@H](O)[C@H]1O [Rutin, reference compound]			
